# Legend:
# [1] = test system: Serratia marcescens; assay: Evaluated for its antimicrobial activity against Serratia marcescens (27117); assay type: functional
# [2] = test system: Escherichia coli; assay: Evaluated for its antimicrobial activity against Escherichia coli (25922); assay type: functional
# [3] = test system: Proteus mirabilis; assay: Evaluated for its antimicrobial activity against Proteus mirabilis (25933); assay type: functional
# [4] = Evaluated for its in vitro antimicrobial activity against Staphylococcus equisimilis (6580C); assay type: functional
# [5] = test system: Salmonella typhimurium; assay: Evaluated for its antimicrobial activity against Salmonella Typhimurium (14028); assay type: functional, Salmonella enterica subsp. enterica serovar Typhimurium; settings: Salmonella enterica
# [6] = test system: Micrococcus luteus; assay: Evaluated for its antimicrobial activity against Micrococcus luteus (9341); assay type: functional
# [7] = test system: Bacillus subtilis; assay: Evaluated for its in vitro antimicrobial activity against Bacillus subtilis (6633); assay type: functional
# [8] = test system: Pseudomonas aeruginosa; assay: Evaluated for its antimicrobial activity against Pseudomonas aeruginosa (27853); assay type: functional
# [9] = test system: Klebsiella pneumoniae; assay: Evaluated for its antimicrobial activity against Klebsiella pneumoniae (10031); assay type: functional
# [10] = test system: Staphylococcus aureus; assay: Evaluated for its in vitro antimicrobial activity against Staphylococcus aureus (6538p); assay type: functional
# [11] = In vitro minimal hemolytic activity was determined; assay type: functional
Structure (SMILES),MIC [1],MIC [2],MIC [3],MIC [4],MIC [5],MIC [6],MIC [7],MIC [8],MIC [9],MIC [10],MHC [11]
CC(C)[C@@H](CC[C@@H](C)[C@H]1CC[C@H]2[C@@H]3[C@H](O)C[C@H]4C[C@@H](NCCCNCCCCN)CC[C@]4(C)[C@H]3CC[C@]12C)OS(=O)(=O)O [SQUALAMINE],> 100 mg/L,> 100 mg/L,> 100 mg/L,3.13 mg/L,> 100 mg/L,3.13 mg/L,3.13 mg/L,> 100 mg/L,12.5 mg/L,6.25 mg/L,
C[C@H](COC(=O)NCCCNCCCCN)[C@H]1CC[C@H]2[C@@H]3CC[C@H]4C[C@H](O)CC[C@]4(C)[C@H]3CC[C@]12C,> 100 mg/L,> 100 mg/L,> 100 mg/L,12.5 mg/L,12.5 mg/L,3.13 mg/L,6.25 mg/L,> 100 mg/L,1.56 mg/L,3.13 mg/L,25 µg/mL
C[C@H](COC(=O)NCCCNCCCCN)[C@H]1CC[C@H]2[C@@H]3[C@H](F)C[C@H]4C[C@H](O)CC[C@]4(C)[C@H]3CC[C@]12C,> 100 mg/L,12.5 mg/L,> 100 mg/L,6.25 mg/L,> 100 mg/L,3.13 mg/L,3.13 mg/L,12.5 mg/L,12.5 mg/L,3.13 mg/L,50 µg/mL
C[C@H](COC(=O)NCCCNCCCCN)[C@H]1CC[C@H]2[C@@H]3[C@H](O)C[C@H]4C[C@H](O)CC[C@]4(C)[C@H]3CC[C@]12C,> 100 mg/L,50 mg/L,> 100 mg/L,12.5 mg/L,> 100 mg/L,3.13 mg/L,6.25 mg/L,25 mg/L,> 100 mg/L,3.13 mg/L,100 µg/mL
C[C@H](COC(=O)NCCCNCCCCNCCC[N+](C)(C)C)[C@H]1CC[C@H]2[C@@H]3CC[C@@H]4C[C@H](O)CC[C@]4(C)[C@H]3CC[C@]12C,> 100 mg/L,12.5 mg/L,> 100 mg/L,1.56 mg/L,12.5 mg/L,1.56 mg/L,1.56 mg/L,3.13 mg/L,> 100 mg/L,0.78 mg/L,25 µg/mL
C[C@H](COC(=O)NCCCNCCCCN)[C@H]1CC[C@H]2[C@@H]3CC[C@@H]4C[C@H](O)CC[C@]4(C)[C@H]3CC[C@]12C,> 100 mg/L,25 mg/L,> 100 mg/L,3.13 mg/L,12.5 mg/L,1.56 mg/L,3.13 mg/L,> 100 mg/L,3.13 mg/L,0.78 mg/L,25 µg/mL
C[C@H](COC(=O)NCCCNCCCCNCCC[N+](C)(C)C)[C@H]1CC[C@H]2[C@@H]3CC[C@H]4C[C@H](O)CC[C@]4(C)[C@H]3CC[C@]12C,> 100 mg/L,6.25 mg/L,> 100 mg/L,1.56 mg/L,> 100 mg/L,3.13 mg/L,1.56 mg/L,25 mg/L,6.25 mg/L,1.56 mg/L,25 µg/mL

# Source: ChEMBL document CHEMBL1134705, “Synthesis and antimicrobial activity of new 3 alpha-hydroxy-23,24-bisnorcholane polyamine carbamates” (2001)
